These results are taken from patent US20210085676A1, “TREATMENT FOR AGE- AND OXIDATIVE STRESS-ASSOCIATED MUSCLE ATROPHY AND WEAKNESS” (Oklahoma Medical Research Foundation, priority 2018, published 2021).

Molecules are shown by their SMILES. Entries after “also recorded” stand apart in the source; their conditions may differ.

Experiment [1] relates to ob/ob mouse model. The note with it: reference 17; cited from earlier work.
In experiment [2] the test system is F2-isoprostanes in quadriceps muscle. Nature of the experiment: Oxidative damage by F2-isoprostane level in quadriceps muscle of treated mice. The class given is in vivo, mouse. The note with it: Sod1−/− mice. As to the method:
Animals. The generation and characterization of the Sod1^−/− mice is described in detail elsewhere (3, 24). Female ≈2 months old C57BL/6J wild-type (WT; n=12-18) and Sod1^−/− mice (n=12-18) were divided into four groups and treated with either vehicle (10% DMSO, 10% Tween-80 in PBS) or CDN1163 (50 mg/kg) by intraperitoneal injection three times per week for 7 weeks. Care and management of the mice was executed according to The Guide for the Care and Use of Laboratory Animals and approved by the institutional Animal Care and Use Committee at the Oklahoma Medical Research Foundation (OKC, Okla., USA). Analysis of oxidative damage by F2-isoprostane level. The levels of F2-isoprostanes in quadriceps muscle were measured using thin layer chromatography and GC-mass spectrometry as described previously (25). CDN1163 reduces the oxidative damage in the Sod1^−/− mice. The inventors have previously reported increased oxidative damage in the skeletal muscles of Sod1^−/− mice (6) that might be contributing to muscle atrophy and weakness. […] Therefore the inventors investigated whether CDN1163 can prevent oxidative stress-induced damage by measuring the levels of F2-isoprostanes, an indicator of lipid peroxidation, in the quadriceps muscles.

In experiment [3] the test system is Sod1−/− mice. Nature of the experiment: Body mass and gastrocnemius muscle mass in Sod1−/− mouse model of accelerated sarcopenia. Conditions: 50 mg/kg i.p. 3 times per week, 7 weeks. Format: in vivo. As to the method:
Animals. The generation and characterization of the Sod1^−/− mice is described in detail elsewhere (3, 24). Female ≈2 months old C57BL/6J wild-type (WT; n=12-18) and Sod1^−/− mice (n=12-18) were divided into four groups and treated with either vehicle (10% DMSO, 10% Tween-80 in PBS) or CDN1163 (50 mg/kg) by intraperitoneal injection three times per week for 7 weeks. Care and management of the mice was executed according to The Guide for the Care and Use of Laboratory Animals and approved by the institutional Animal Care and Use Committee at the Oklahoma Medical Research Foundation (OKC, Okla., USA). CDN1163 prevents gastrocnemius muscle atrophy in the Sod1^−/− mice. […] At 2 months of age, neither absolute (FIG. 2B) nor normalized (FIG. 2C) gastrocnemius muscle mass is statistically lower in Sod1^−/− versus WT female mice. However, at the end of the 7 week period (˜4 months of age) there is a significant decrease in both absolute and normalized gastrocnemius muscle mass in the untreated Sod1^−/− mice compared to untreated WT mice (FIGS. 2B, 2C) consistent with the inventor's previous reports(3).

Experiment [4] has as its system EDL muscle of Sod1−/− mice. The experiment can be described thus: Contractile measurements in isolated EDL muscle of treated Sod1−/− mice. The class given is in vivo, mouse. As to the method:
Animals. The generation and characterization of the Sod1^−/− mice is described in detail elsewhere (3, 24). Female ≈2 months old C57BL/6J wild-type (WT; n=12-18) and Sod1^−/− mice (n=12-18) were divided into four groups and treated with either vehicle (10% DMSO, 10% Tween-80 in PBS) or CDN1163 (50 mg/kg) by intraperitoneal injection three times per week for 7 weeks. Care and management of the mice was executed according to The Guide for the Care and Use of Laboratory Animals and approved by the institutional Animal Care and Use Committee at the Oklahoma Medical Research Foundation (OKC, Okla., USA). Contractile Measurements. Contractile force generation was measured in isolated extensor digitorum longus (EDL) muscle using a 1200A in vitro test system (Aurora Scientific Inc.) as described elsewhere (7). Briefly, muscles were individually tied to a model 300C servomotor (Aurora Scientific Inc.) and fixed within a water bath containing an oxygenated (95% O2, 5% CO2) Krebs-Ringer solution (in mM: 137 NaCl, 5 KCl, 1 MgSO4, 1 NaH2PO4, 24 NaHCO3, 2 CaCl2) maintained at 32 C. Computer controlled stimulation was applied through a model 701C stimulator (Aurora Scientific Inc.). Force frequency curves were generated with stimulation frequencies between 1 and 300 Hz, while the fatigue protocol consisted of repeated 150 Hz stimuli, every 5 s for 400 s. All data were recorded and analyzed using commercial software (DMC and DMA, Aurora Scientific). Specific force (N/cm^2) was measured using muscle length and mass. Example 3. CDN1163 prevents contractile dysfunction in the Sod1^−/− mice. In agreement with the inventor's previous findings, the inventors measured a significant decline in the in-vitro specific force measured in EDL muscle of Sod1^−/− mice (˜19%, p<0.05) when compared to WT mice (FIG. 3A). […] On the other hand, CDN1163 has no effect on the time to peak contraction (TTP) and half relaxation time (RT1/2) in the EDL muscle during twitch contractions (FIGS. 3B, 3C).

Experiment [5] deals with isolated mitochondria from the gastrocnemius muscle. Nature of the experiment: Mitochondrial H2O2 production (Amplex red-HRP) in isolated mitochondria from gastrocnemius muscle of treated mice. The class given is in vivo, mouse. Conditions: Sod1−/− mice. Here is the method:
(§1) Animals. The generation and characterization of the Sod1^−/− mice is described in detail elsewhere (3, 24). Female ≈2 months old C57BL/6J wild-type (WT; n=12-18) and Sod1^−/− mice (n=12-18) were divided into four groups and treated with either vehicle (10% DMSO, 10% Tween-80 in PBS) or CDN1163 (50 mg/kg) by intraperitoneal injection three times per week for 7 weeks. Care and management of the mice was executed according to The Guide for the Care and Use of Laboratory Animals and approved by the institutional Animal Care and Use Committee at the Oklahoma Medical Research Foundation (OKC, Okla., USA).
Mitochondrial function. Mitochondrial isolation and assays for H2O2 generation were performed in gastrocnemius muscle as described previously by the inventor's laboratory (27). Freshly isolated mitochondria were used for H2O2 release assay using the Amplex red-HRP method. Isolated mitochondrial are exposed to respiratory substrates and HRP (1 U Ml-1) in the assay buffer catalyzes the H2O2-dependent oxidation of non-fluorescent Amplex Red (80 μM) (Molecular Probes, Eugene, Oreg., USA) to fluorescent resofurin red (excitation λ=544 nm, emission λ=590 nm at 37° C.). The slope of the increase in fluorescence was converted to the rate of H2O2 production with standard curve.
CDN1163 attenuates mitochondrial dysfunction in the Sod1^−/− mice. It is well documented that elevated levels of cytosolic Ca^2+ lead to increased mitochondrial ROS production (16). The inventors have previously shown that the mitochondria from the Sod1^−/− mice show structural and functional defects (4, 5). To test whether the activation of SERCA pump function improves mitochondrial function, the inventors measured mitochondrial ROS production as H2O2 emission using isolated mitochondria from the gastrocnemius muscle. […] CDN1163 treatment in the Sod1^−/− mice returns glutamate/malate stimulated H2O2 generation to WT levels (FIG. 4A).

Experiment [6] concerns SERCA. The experiment can be described thus: SERCA Ca2+-dependent ATPase activity in gastrocnemius muscle homogenates of treated mice. The class given is in vivo, mouse. The note with it: Sod1−/− mice, 50 mg/kg i.p. 3 times per week, 7 weeks. Here is the method: as §1, with “USA). SERCA activity. The measurement of SERCA activity was performed in the muscle homogenates at 37° C. using a spectrophotometric assay as previously described (26). CDN1163 rescues the SERCA activity in the Sod1^−/− mice. Ca^2+-dependent Ca^2+-ATPase activity was measured in gastrocnemius muscle homogenates to determine the effects of CDN1163 on SERCA function. […] Levels of SERCA1 and SERCA2 mRNA and protein were not changed in Sod1^−/− mice and were not altered by CDN1163 treatment (FIGS. 1C, 1D).” for “USA).”

The subject of experiment [7] is old wildtype mice. The experiment can be described thus: Aging study in old wildtype mice (24-26 months), 8-10 months treatment. The class given is in vivo, mouse. The source says: The present inventors studied a group of old wildtype mice (24-26 months) with and without 8-10 months treatment with CDN1163. […] Further, the old mice show significant atrophy of the gastrocnemius muscles when compared to baseline group (≈10%, p<0.05). […] The inventors also measured the muscle force generating capacity in the mouse EDL muscles because of large body of literature showing reduced strength of extensor digitorum longus (EDL) muscle with aging. EDL muscle weakness in the old wild-type mice (≈11%, p<0.05) was consistent with previous studies, when compared to the baseline group. […] This effect was consistent at stimulation frequencies for maximal and sub-maximal (≈50% of maximal force) tetanic forces normalized for muscle mass. […] As such, CDN1163 was able to reduce muscle weakness, while not having side-effects related to muscle half relaxation time and time to maximal twitch force.

The mark [8] stands for this setting: 50 mg/kg i.p. 3 times per week, 7 weeks.
The mark [9] stands for this setting: EDL muscle, twitch contractions, 7 weeks treatment.
Setting [10] is: old wildtype mice 24-26 months, versus 16 month old baseline.

As for `Cc1ccc2cccc(NC(=O)c3ccc(OC(C)C)cc3)c2n1` [CDN1163, 4-(1-Methylethoxy)-N-(2-methyl-8-quinolinyl)-benzamide], the “Plasma levels of malondialdehyde (marker of oxidative stress)” value in experiment [1] was “reduce”. Besides, the “Reduction of oxidative damage in muscle tissue measured as F2-isoprostanes” value in experiment [2] (setting [8]) amounted to 50%. The “F2-isoprostanes levels (lipid peroxidation)” value in experiment [2] (quadriceps muscle, 7 weeks treatment) was “reduces; also recorded: prevented this increase”. Further, the “Increase in (normalized) gastrocnemius muscle mass versus untreated Sod1−/− mice” value in experiment [3] (Sod1−/− mice) came out at 23%. Moreover, in experiment [3] (Sod1−/− mice, 50 mg/kg), the “Gastrocnemius muscle mass / atrophy” value is listed as “restores; also recorded: completely prevented this atrophy”. In addition, the “Body weight (body mass)” value in experiment [3] (WT or Sod1−/− mice, 50 mg/kg) is given as “did not alter”. Also, in experiment [4] (setting [9]), the “Half relaxation time (RT1/2)” value is “without affecting; also recorded: no effect” and the “Time to twitch peak tension / time to peak contraction (TTP)” value is listed as “without affecting; also recorded: no effect”. For the same molecule, in experiment [4] (Sod1−/− mice, 50 mg/kg i.p. 3 times per week, 7 weeks, measured in vitro, 50 mg/kg), the “Specific force of EDL muscle” value is reported as “completely restored”. Also, the “Mitochondrial ROS generation” value in experiment [5] (setting [8]) is listed as “reversed”. Further, the “Mitochondrial H2O2 production, glutamate/malate stimulated (state-2, complex 1-linked)” value in experiment [5] (7 weeks treatment) is listed as “reduces; also recorded: to WT levels”. Moreover, the “Mitochondrial H2O2 production, State-1 respiration” value in experiment [5] (without external substrate, 7 weeks treatment) is “reduces; also recorded: do not show elevated levels”. For the same molecule, the “Maximum Ca2+ dependent SERCA (SR Ca2+-ATPase) activity” value in experiment [6] was “completely restored”. Besides, in experiment [7] (old wildtype mice), the “Muscle half relaxation time” value is listed as “no significant effects” and the “Time to maximal twitch force” value is reported as “no significant effects”. Also, in experiment [7] (setting [10]), the “Age-related atrophy of the gastrocnemius muscles” value is reported as “completely prevented” and the “Age-related reduction in body weight” value is “did not prevent”. Also, the “Age-related decline in EDL muscle force” value in experiment [7] (old wildtype mice, maximal and sub-maximal tetanic forces normalized for muscle mass) is “prevented this decline in force”.
